For this assay, the target named is GlmU (Mycobacterium tuberculosis, UniProt P9WMN3). The assay is described as follows: […]; double reciprocal plots; […]. The class given is biochemical.

Results on 1 compound are retold here after article PMC6652808, “The Inhibitory Effect of GlmU Acetyltransferase Inhibitor TPSA on Mycobacterium tuberculosis May Be Affected Due to Its Methylation by Methyltransferase Rv0560c” (Frontiers in Cellular and Infection Microbiology, 2019).

Each structure is given as a SMILES string.

GlmU, sequence (P9WMN3 2-495): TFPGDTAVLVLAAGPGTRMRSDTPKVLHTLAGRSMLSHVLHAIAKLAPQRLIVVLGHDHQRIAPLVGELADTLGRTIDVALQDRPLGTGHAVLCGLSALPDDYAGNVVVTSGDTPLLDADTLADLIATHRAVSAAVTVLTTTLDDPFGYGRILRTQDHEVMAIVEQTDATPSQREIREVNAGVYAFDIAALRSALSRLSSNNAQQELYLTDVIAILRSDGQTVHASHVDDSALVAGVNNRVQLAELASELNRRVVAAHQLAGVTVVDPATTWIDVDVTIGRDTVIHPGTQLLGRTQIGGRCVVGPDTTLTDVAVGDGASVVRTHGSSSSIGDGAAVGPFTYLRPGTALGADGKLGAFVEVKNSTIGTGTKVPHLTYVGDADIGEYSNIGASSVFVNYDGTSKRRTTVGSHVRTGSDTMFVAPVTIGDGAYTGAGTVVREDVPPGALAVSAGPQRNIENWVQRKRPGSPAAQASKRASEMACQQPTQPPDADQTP

Consider `O=C(O)Cc1ccc(C(=O)CSc2nccc(-c3cccs3)n2)s1` [TPSA, 2-[5-(2-{[4-(2-thienyl)-2-pyrimidinyl]sulfanyl}acetyl)-2-thienyl]acetic acid], for which half-maximal inhibition (IC50) was put at 5.3 ± 0.48 µM.
